These results are taken from patent US8481597B2, “Use of (-) (3-trihalomethylphenoxy) (4-halophenyl) acetic acid derivatives for treatment of insulin resistance, type 2 diabetes, hyperlipidemia and hyperuricemia” (Metabolex, Inc., priority 1999, dated 2013).

Where two headings read alike, the source gives them in different places.

Data set [1] deals with T1, CYP2A6 (Homo sapiens, UniProt P11509).
T1 sequence (P11509 1-494): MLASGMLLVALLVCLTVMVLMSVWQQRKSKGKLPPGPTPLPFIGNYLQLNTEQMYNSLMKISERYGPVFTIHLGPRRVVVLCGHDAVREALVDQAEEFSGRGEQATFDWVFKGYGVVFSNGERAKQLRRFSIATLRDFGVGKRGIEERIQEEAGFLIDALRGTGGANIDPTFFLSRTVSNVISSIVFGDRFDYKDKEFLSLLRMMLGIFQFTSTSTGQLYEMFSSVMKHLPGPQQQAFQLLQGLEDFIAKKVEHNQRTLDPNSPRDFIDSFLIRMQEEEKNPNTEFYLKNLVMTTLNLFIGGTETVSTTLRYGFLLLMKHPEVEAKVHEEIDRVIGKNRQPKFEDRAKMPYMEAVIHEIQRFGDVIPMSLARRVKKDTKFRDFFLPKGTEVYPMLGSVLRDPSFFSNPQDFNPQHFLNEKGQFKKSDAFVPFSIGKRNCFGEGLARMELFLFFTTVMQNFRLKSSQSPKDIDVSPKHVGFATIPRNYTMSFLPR
The settings on record: for 7-HC Production: both, human, 20 min.

Data set [2] has as its target T1, CYP2A6. The experiment in a line: Cytochrome P450 isoform inhibition, coumarin, human hepatic microsomes (Example 18). The conditions noted are these: TRAN 250 μM; 1 μM coumarin; VC 32.0 ± 1.4.
Another data set has as its system C57BL/6J ob/ob mice. The experiment in a line: Glucose lowering of (±) and (−) halofenate analogs in ob/ob mice (Example 12). In kind it is in vivo.
In a further data set the target is T2, CYP1A2 (Homo sapiens, UniProt P05177).
T2 sequence (P05177 1-516): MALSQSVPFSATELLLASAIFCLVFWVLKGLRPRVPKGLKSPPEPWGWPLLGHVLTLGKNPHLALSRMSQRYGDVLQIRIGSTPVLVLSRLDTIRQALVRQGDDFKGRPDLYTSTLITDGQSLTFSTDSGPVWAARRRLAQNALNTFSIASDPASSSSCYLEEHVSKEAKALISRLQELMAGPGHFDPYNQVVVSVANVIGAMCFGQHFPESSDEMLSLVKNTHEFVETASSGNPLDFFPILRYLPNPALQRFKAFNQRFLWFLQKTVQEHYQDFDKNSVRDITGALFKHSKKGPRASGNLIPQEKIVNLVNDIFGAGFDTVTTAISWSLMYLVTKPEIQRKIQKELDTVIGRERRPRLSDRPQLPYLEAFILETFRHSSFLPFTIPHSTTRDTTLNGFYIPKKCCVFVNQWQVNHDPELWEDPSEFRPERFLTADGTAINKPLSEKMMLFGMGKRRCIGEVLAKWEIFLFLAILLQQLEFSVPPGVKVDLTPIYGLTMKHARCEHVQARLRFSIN
The settings on record: both, 30 min.

The target of the next data set is CYP2C9 (Homo sapiens, UniProt P11712). The settings on record: both, human, 40 min.
The next data set addresses CYP2D6 (Homo sapiens, UniProt P10635). The conditions noted are these: both, 15 min.
In a further data set the target is CYP3A4 (Homo sapiens, UniProt P08684). The settings on record: both, 10 min.
For data set [3], the target named is cytochrome P450 2C9 (CYP2C9) (Homo sapiens, UniProt P11712). The data set is described as follows: Inhibition of CYP2C9 tolbutamide hydroxylation in pooled human liver microsomes (Example 7). The conditions noted are these: ratio of apparent IC50. Background: Microsomes from liver hold many membrane-bound enzymes, among them those of drug oxidation.
Protocol: Tolbutamide hydroxylation activity (100 μM ^14C-tolbutamide; 1 mM NADPH) was assayed in pooled human liver microsomes (0.6 mg protein/ml)) for 60 minutes at 37° C. both with and without test compounds.

As usually defined, the IC50 is the midpoint of a concentration-inhibition curve. A lower IC50 goes with inhibition by little substance.

Sequence of CYP2C9 (P11712 whole entry): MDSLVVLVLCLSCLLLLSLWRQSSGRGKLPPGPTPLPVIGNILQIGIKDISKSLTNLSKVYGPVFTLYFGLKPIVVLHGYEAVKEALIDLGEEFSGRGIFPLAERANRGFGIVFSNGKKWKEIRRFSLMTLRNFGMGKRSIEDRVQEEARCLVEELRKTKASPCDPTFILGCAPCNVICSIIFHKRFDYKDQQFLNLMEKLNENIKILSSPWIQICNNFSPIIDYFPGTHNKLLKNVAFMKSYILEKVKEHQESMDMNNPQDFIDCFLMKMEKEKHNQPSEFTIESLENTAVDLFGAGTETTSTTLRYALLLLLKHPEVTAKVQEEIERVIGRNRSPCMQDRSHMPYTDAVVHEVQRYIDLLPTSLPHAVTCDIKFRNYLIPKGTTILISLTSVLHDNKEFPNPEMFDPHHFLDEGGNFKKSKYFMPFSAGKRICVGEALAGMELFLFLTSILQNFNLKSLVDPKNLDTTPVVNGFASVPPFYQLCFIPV
Sequence of CYP3A4 (P08684 whole entry): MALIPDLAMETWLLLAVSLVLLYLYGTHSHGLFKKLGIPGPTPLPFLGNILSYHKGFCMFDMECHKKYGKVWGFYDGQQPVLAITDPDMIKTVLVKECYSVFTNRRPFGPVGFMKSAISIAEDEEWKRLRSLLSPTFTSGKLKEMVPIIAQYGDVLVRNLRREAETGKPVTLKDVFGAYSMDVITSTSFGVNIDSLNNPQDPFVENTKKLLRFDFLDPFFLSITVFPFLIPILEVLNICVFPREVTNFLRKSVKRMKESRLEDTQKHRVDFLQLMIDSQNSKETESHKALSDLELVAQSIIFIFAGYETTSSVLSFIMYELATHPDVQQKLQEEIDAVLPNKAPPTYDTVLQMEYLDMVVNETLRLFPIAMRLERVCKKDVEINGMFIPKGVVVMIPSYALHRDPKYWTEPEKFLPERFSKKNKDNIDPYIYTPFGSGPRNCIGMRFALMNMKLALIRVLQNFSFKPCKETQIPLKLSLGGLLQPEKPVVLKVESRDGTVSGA
Sequence of CYP2D6 (P10635 whole entry): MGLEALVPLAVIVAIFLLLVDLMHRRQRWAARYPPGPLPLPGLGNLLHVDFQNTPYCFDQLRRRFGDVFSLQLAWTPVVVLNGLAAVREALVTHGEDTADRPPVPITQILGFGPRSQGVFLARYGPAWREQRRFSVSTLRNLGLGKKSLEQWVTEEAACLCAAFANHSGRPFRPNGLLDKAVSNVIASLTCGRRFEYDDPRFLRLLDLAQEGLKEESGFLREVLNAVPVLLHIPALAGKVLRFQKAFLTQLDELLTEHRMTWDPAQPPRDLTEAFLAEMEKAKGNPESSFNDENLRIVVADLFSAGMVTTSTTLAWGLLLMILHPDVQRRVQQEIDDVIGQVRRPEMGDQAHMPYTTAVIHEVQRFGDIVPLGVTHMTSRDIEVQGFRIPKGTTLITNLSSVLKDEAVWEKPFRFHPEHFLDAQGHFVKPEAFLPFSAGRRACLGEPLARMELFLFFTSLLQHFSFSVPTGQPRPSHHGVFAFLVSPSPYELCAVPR
Sequence of cytochrome P450 2C9 (CYP2C9) (P11712 whole entry): as the sequence (P11712 whole entry) above

For `N[C@@H]1C[C@H]1c1ccccc1` (racemic) [TRAN, tranylcypromine, reference compound], the “% Inhibition (Coumarin, CYP2A6)” value on CYP2A6 [1] (microsomes) is 100%. Moreover, the “7-HC Production” value at CYP2A6 [2] is 0.00 ± 0.00 pmol/mg protein/min.
Consider `O=C(O)C(Oc1cccc(C(F)(F)F)c1)c1ccc(Cl)cc1` (single isomer, unassigned; (-)) [(−) halofenic acid, (−) 4-chlorophenyl-(3-trifluoromethylphenoxy)-acetic acid], for which the “time points with significantly lowered plasma glucose concentrations” value with C57BL/6J ob/ob mice (125 mg/kg oral once a day) was 6 h. Moreover, the “6 hours Glucose” value in the data set with C57BL/6J ob/ob mice (125 mg/kg oral once a day, 6 hours after first dose) is 163.8 ± 11.8 mg/dL. Further, in the data set on C57BL/6J ob/ob mice (baseline before dosing, group later given 125 mg/kg oral once a day), the “Predose Glucose” value stood at 312.9 ± 17.7 mg/dL. The “AC Production” value on CYP1A2 (0.33 μM) came out at 116 ± 2 pmol/mg protein/min; at CYP1A2 (1 μM), 118 ± 2 pmol/mg protein/min; on CYP1A2 (3.3 μM), 119 ± 2 pmol/mg protein/min; on CYP1A2 (10 μM) it was 119 ± 2 pmol/mg protein/min; on CYP1A2 (33.3 μM), 119 ± 2 pmol/mg protein/min. Moreover, the “7-HC Production” value was 33.3 ± 0.7 pmol/mg protein/min on CYP2A6 [1] (0.33 μM); 32.6 ± 0.7 pmol/mg protein/min at CYP2A6 [1] (1 μM); 32.1 ± 0.7 pmol/mg protein/min on CYP2A6 [1] (3.3 μM); 33.1 ± 0.7 pmol/mg protein/min on CYP2A6 [1] (10 μM); 32.3 ± 0.7 pmol/mg protein/min at CYP2A6 [1] (33.3 μM). Besides, the “4-OH TB Production” value at CYP2C9 (0.33 μM) is listed as 41.0 ± 0.9 pmol/mg protein/min; on CYP2C9 (1 μM), 38.6 ± 0.5 pmol/mg protein/min; at CYP2C9 (3.3 μM), 34.2 ± 0.2 pmol/mg protein/min; on CYP2C9 (10 μM) it was 22.7 ± 0.6 pmol/mg protein/min; on CYP2C9 (33.3 μM) it was 12.7 ± 0.2 pmol/mg protein/min. On CYP2C9 (microsomes), this molecule had a half-maximal inhibitory concentration (IC50) of approximately 11.3 µM. Further, the “DEX Production” value at CYP2D6 (0.33 μM) is on record as 107 ± 4 pmol/mg protein/min; at CYP2D6 (1 μM), 110 ± 2 pmol/mg protein/min; at CYP2D6 (3.3 μM), 104 ± 3 pmol/mg protein/min; on CYP2D6 (10 μM) it was 107 ± 1 pmol/mg protein/min; at CYP2D6 (33.3 μM) it was 106 ± 4 pmol/mg protein/min. The “6β-OHT Production” value at CYP3A4 (0.33 μM) is 1816 ± 12 pmol/mg protein/min; on CYP3A4 (1 μM), 1851 ± 14 pmol/mg protein/min; on CYP3A4 (3.3 μM) it was 1810 ± 3 pmol/mg protein/min; at CYP3A4 (10 μM) it was 1819 ± 4 pmol/mg protein/min; at CYP3A4 (33.3 μM), 1816 ± 6 pmol/mg protein/min. For the same molecule, the “fold less potent than (+) halofenic acid in inhibiting CYP2C9” value in data set [3] is listed as approximately 20 fold.
